Measured values as given in patent US7625841B2, “Substituted thiene-3-ylsulphonylamino(thio)carbonyltriazolin(ethi)ones” (Bayer CropScience AG, priority 2001, dated 2009).
Counter-ions that a name gives are not always drawn.

What was measured:
Setaria [1] = assay: Post-emergence test/greenhouse; assay type: in vivo; settings: greenhouse, application rate 15 gai/ha, rated after three weeks, 0%=no effect, 100%=total destruction
Method in brief: (§1)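 Greenhouse foliar application to 5-15 cm plants at the chosen rate per hectare, 1000 l water/ha. Effect was rated as % damage after three weeks, with untreated plants as 0%.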

Xanthium [2] = assay: Post-emergence test/greenhouse; assay type: in vivo; settings: greenhouse, application rate 15 gai/ha, rated after three weeks, 0%=no effect, 100%=total destruction
Method in brief: as §1

Lolium [3] = assay: Post-emergence test/greenhouse; assay type: in vivo; settings: greenhouse, application rate 15 gai/ha, rated after three weeks, 0%=no effect, 100%=total destruction
Method in brief: as §1

maize [4] = assay: Post-emergence test/greenhouse; assay type: in vivo; settings: greenhouse, application rate 15 gai/ha, rated after three weeks, 0%=no effect, 100%=total destruction
Method in brief: as §1

Avena fatua [5] = assay: Post-emergence test/greenhouse; assay type: in vivo; settings: greenhouse, application rate 15 gai/ha, rated after three weeks, 0%=no effect, 100%=total destruction
Method in brief: as §1

rape = assay: Post-emergence test/greenhouse; assay type: in vivo; settings: greenhouse, application rate 15 gai/ha, rated after three weeks, 0%=no effect, 100%=total destruction
Method in brief: as §1

Chenopodium [6] = assay: Post-emergence test/greenhouse; assay type: in vivo; settings: greenhouse, application rate 15 gai/ha, rated after three weeks, 0%=no effect, 100%=total destruction
Method in brief: as §1

Echinochloa = assay: Post-emergence test/greenhouse; assay type: in vivo; settings: greenhouse, application rate 15 gai/ha, rated after three weeks, 0%=no effect, 100%=total destruction
Method in brief: as §1

Digitaria [7] = assay: Post-emergence test/greenhouse; assay type: in vivo; settings: greenhouse, application rate 15 gai/ha, rated after three weeks, 0%=no effect, 100%=total destruction
Method in brief: as §1

Alopecurus [8] = assay: Post-emergence test/greenhouse; assay type: in vivo; settings: greenhouse, application rate 15 gai/ha, rated after three weeks, 0%=no effect, 100%=total destruction
Method in brief: as §1

Bromus [9] = assay: Post-emergence test/greenhouse; assay type: in vivo; settings: greenhouse, application rate 15 gai/ha, rated after three weeks, 0%=no effect, 100%=total destruction
Method in brief: as §1

Viola = assay: Post-emergence test/greenhouse; assay type: in vivo; settings: greenhouse, application rate 15 gai/ha, rated after three weeks, 0%=no effect, 100%=total destruction
Method in brief: as §1

wheat [10] = assay: Post-emergence test/greenhouse; assay type: in vivo; settings: greenhouse, application rate 15 gai/ha, rated after three weeks, 0%=no effect, 100%=total destruction
Method in brief: as §1

Polygonum [11] = assay: Post-emergence test/greenhouse; assay type: in vivo; settings: greenhouse, application rate 15 gai/ha, rated after three weeks, 0%=no effect, 100%=total destruction
Method in brief: as §1

Datura = assay: Post-emergence test/greenhouse; assay type: in vivo; settings: greenhouse, application rate 15 gai/ha, rated after three weeks, 0%=no effect, 100%=total destruction
Method in brief: as §1

Setaria [12] = assay: Pre-emergence test/greenhouse; assay type: in vivo; settings: greenhouse, application rate 15 gai/ha, rated after three weeks, 0%=no effect, 100%=total destruction
Method in brief: (§2)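 Greenhouse pre-emergence format: sowing in normal soil, then spraying of an acetone-based emulsified preparation onto the soil one day later (1000 L/ha water). Effect assessed visually after three weeks as % damage.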

Xanthium [13] = assay: Pre-emergence test/greenhouse; assay type: in vivo; settings: Xanthium, 504 h, greenhouse, application rate 15 gai/ha, rated after three weeks, 0%=no effect, 100%=total destruction, read-out: degree of damage to the plants, Xanthium
Method in brief: as §2

Lolium [14] = assay: Pre-emergence test/greenhouse; assay type: in vivo; settings: greenhouse, application rate 15 gai/ha, rated after three weeks, 0%=no effect, 100%=total destruction; for pest or weed control at 15 g/ha: Lolium, 504 h, read-out: degree of damage to the plants, Lolium
Method in brief: as §2

maize [15] = assay: Pre-emergence test/greenhouse; assay type: in vivo; settings: Zea mays, 504 h, greenhouse, application rate 15 gai/ha, rated after three weeks, 0%=no effect, 100%=total destruction, read-out: degree of damage to the plants, maize
Method in brief: as §2

Matricaria = assay: Pre-emergence test/greenhouse; assay type: in vivo; settings: Matricaria, 504 h, greenhouse, application rate 15 gai/ha, rated after three weeks, 0%=no effect, 100%=total destruction, read-out: degree of damage to the plants, Matricaria
Method in brief: as §2

Avena fatua [16] = assay: Pre-emergence test/greenhouse; assay type: in vivo; settings: greenhouse, application rate 15 gai/ha, rated after three weeks, 0%=no effect, 100%=total destruction
Method in brief: as §2

Solanum = assay: Pre-emergence test/greenhouse; assay type: in vivo; settings: greenhouse, application rate 15 gai/ha, rated after three weeks, 0%=no effect, 100%=total destruction
Method in brief: as §2

Chenopodium [17] = assay: Pre-emergence test/greenhouse; assay type: in vivo; settings: greenhouse, application rate 15 gai/ha, rated after three weeks, 0%=no effect, 100%=total destruction
Method in brief: as §2

Digitaria [18] = assay: Pre-emergence test/greenhouse; assay type: in vivo; settings: greenhouse, application rate 15 gai/ha, rated after three weeks, 0%=no effect, 100%=total destruction
Method in brief: as §2

Stellaria = assay: Pre-emergence test/greenhouse; assay type: in vivo; settings: greenhouse, application rate 15 gai/ha, rated after three weeks, 0%=no effect, 100%=total destruction; for pest or weed control at 15 g/ha: Stellaria, 504 h, read-out: degree of damage to the plants, Stellaria
Method in brief: as §2

Alopecurus [19] = assay: Pre-emergence test/greenhouse; assay type: in vivo; settings: greenhouse, application rate 15 gai/ha, rated after three weeks, 0%=no effect, 100%=total destruction
Method in brief: as §2

Galium = assay: Pre-emergence test/greenhouse; assay type: in vivo; settings: greenhouse, application rate 15 gai/ha, rated after three weeks, 0%=no effect, 100%=total destruction
Method in brief: as §2

Bromus [20] = assay: Pre-emergence test/greenhouse; assay type: in vivo; settings: greenhouse, application rate 15 gai/ha, rated after three weeks, 0%=no effect, 100%=total destruction
Method in brief: as §2

wheat [21] = assay: Pre-emergence test/greenhouse; assay type: in vivo; settings: Triticum aestivum, 504 h, greenhouse, application rate 15 gai/ha, rated after three weeks, 0%=no effect, 100%=total destruction, read-out: degree of damage to the plants, wheat
Method in brief: as §2

Polygonum [22] = assay: Pre-emergence test/greenhouse; assay type: in vivo; settings: greenhouse, application rate 15 gai/ha, rated after three weeks, 0%=no effect, 100%=total destruction
Method in brief: as §2

soybeans = assay: Pre-emergence test/greenhouse; assay type: in vivo; settings: greenhouse, application rate 15 gai/ha, rated after three weeks, 0%=no effect, 100%=total destruction
Method in brief: as §2

weeds [23] = assay: Pre-emergence test, summary for weeds; assay type: in vivo
Method in brief: as §2

weeds [24] = assay: Post-emergence test, summary for weeds; assay type: in vivo
Method in brief: as §1

[25] = test system: crop plants such as, for example, maize, oilseed rape and wheat; assay: Post-emergence test, summary for crop plants; assay type: in vivo
Method in brief: as §1

[26] = test system: crop plants, such as, for example, maize, soyabean and wheat; assay: Pre-emergence test, summary for crop plants; assay type: in vivo
Method in brief: as §2

Amaranthus = assay: Pre-emergence test/greenhouse; assay type: in vivo; settings: greenhouse, application rate 15 gai/ha, rated after three weeks, 0%=no effect, 100%=total destruction
Method in brief: as §2

Compound	degree of damage to the plants, Xanthium (Xanthium [2])	degree of damage to the plants, Lolium (Lolium [3])	degree of damage to the plants, maize (maize [4])	degree of damage to the plants, Echinochloa (Echinochloa)	degree of damage to the plants, Alopecurus (Alopecurus [8])	degree of damage to the plants, wheat (wheat [10])	degree of damage to the plants, Polygonum (Polygonum [11])	degree of damage to the plants, Datura (Datura)	degree of damage to the plants, Setaria (Setaria [12])	pest or weed control at 15 g/ha (Xanthium [13])	pest or weed control at 15 g/ha (Lolium [14])	plant injury at 15 g/ha (maize [15])	pest or weed control at 15 g/ha (Matricaria)	degree of damage to the plants, Avena fatua (Avena fatua [16])	degree of damage to the plants, Solanum (Solanum)	pest or weed control at 15 g/ha (Stellaria)	degree of damage to the plants, Galium (Galium)	degree of damage to the plants, Bromus (Bromus [20])	plant injury at 15 g/ha (wheat [21])	degree of damage to the plants, Amaranthus (Amaranthus)	also measured
CCCOc1nn(C(=O)NS(=O)(=O)c2c(C(=O)OC)csc2C)c(=O)n1C [(A), methyl 4-[[[(4,5-dihydro-4-methyl-5-oxo-3-n-propoxy-1H-1,2,4-triazol-1-yl)carbonyl]-amino]sulfonyl]-5-methyl-3-thiophenecarboxylate, reference compound]	70%	30%	30%	60%	70%	0%	50%	50%	0%	0%	0%	0%	50%	0%	80%	80%	10%	60%	0%		degree of damage to the plants, Setaria (Setaria [1]): 30%; degree of damage to the plants, Avena fatua (Avena fatua [5]): 30%; degree of damage to the plants, rape (rape): 95%; degree of damage to the plants, Chenopodium (Chenopodium [6]): 80%; degree of damage to the plants, Digitaria (Digitaria [7]): 10%; degree of damage to the plants, Bromus (Bromus [9]): 50%; degree of damage to the plants, Viola (Viola): 30%; degree of damage to the plants, Chenopodium (Chenopodium [17]): 50%; degree of damage to the plants, Digitaria (Digitaria [18]): 0%; degree of damage to the plants, Alopecurus (Alopecurus [19]): 60%; degree of damage to the plants, Polygonum (Polygonum [22]): 0%; degree of damage to the plants, soybeans (soybeans): 0%
CCOC(=O)c1csc(C)c1S(=O)(=O)NC(=O)n1nc(OC)n(C)c1=O [Example 1, ethyl 4-[[[(3-methoxy-4-methyl-5-oxo-1H-1,2,4-triazol-1-yl)carbonyl]amino]sulfonyl]-5-methyl-3-thiophenecarboxylate]	95%	90%	0%	90%		0%	95%	95%		95%	90%	0%	100%		100%	100%		95%	0%	100%	activity against weeds compared with the known compounds (A) to (G) (weeds [23]): considerably stronger activity against weeds; activity against weeds compared with the known compounds (A) and (B) (weeds [24]): considerably stronger activity against weeds; compatibility with crop plants compared with the known compounds (A) and (B) [25]: substantially better compatibility with crop plants; melting point: 176 °C; tolerance by crop plants [26]: tolerated well by crop plants; degree of damage to the plants, Viola (Viola): 95%
CCCc1nn(C(=O)NS(=O)(=O)c2c(C(=O)OC)csc2C)c(=O)n1OC [Example 42]		90%		90%	90%				95%					90%			100%	95%		100%	activity against weeds compared with the known compounds (A) to (G) (weeds [23]): considerably stronger activity against weeds; activity against weeds compared with the known compounds (A) and (B) (weeds [24]): considerably stronger activity against weeds; compatibility with crop plants compared with the known compounds (A) and (B) [25]: substantially better compatibility with crop plants; tolerance by crop plants [26]: tolerated well by crop plants; degree of damage to the plants, rape (rape): 0%; degree of damage to the plants, Chenopodium (Chenopodium [6]): 95%; degree of damage to the plants, Lolium (Lolium [14]): 95%; degree of damage to the plants, Stellaria (Stellaria): 100%
CCOC(=O)c1csc(C)c1S(=O)(=O)NC(=O)n1nc(OC)n(C)c1=O (as salt: sodium) [Example 1, ethyl 4-[[[(3-methoxy-4-methyl-5-oxo-1H-1,2,4-triazol-1-yl)carbonyl]amino]sulfonyl]-5-methyl-3-thiophenecarboxylate]																					melting point: 220 °C
CCCOc1nn(C(=O)NS(=O)(=O)c2c(C(=O)OC)csc2C)c(=O)n1C1CC1 [(B), methyl 4-[[[(4-cyclopropyl-4,5-dihydro-5-oxo-3-n-propoxy-1H-1,2,4-triazol-1-yl)-carbonyl]amino]sulfonyl]-5-methyl-3-thiophenecarboxylate, reference compound]	50%	60%	90%		0%	30%	70%	80%	40%	0%	20%	0%	40%	10%	80%	60%	20%	40%	0%	80%	degree of damage to the plants, Setaria (Setaria [1]): 60%; degree of damage to the plants, Avena fatua (Avena fatua [5]): 50%; degree of damage to the plants, Digitaria (Digitaria [7]): 20%; degree of damage to the plants, Bromus (Bromus [9]): 50%; degree of damage to the plants, Chenopodium (Chenopodium [17]): 40%; degree of damage to the plants, Digitaria (Digitaria [18]): 0%; degree of damage to the plants, Alopecurus (Alopecurus [19]): 20%; degree of damage to the plants, Polygonum (Polygonum [22]): 50%; degree of damage to the plants, soybeans (soybeans): 0%
